Source: patent publication US5668134A, “Method for preventing or reducing photosensitivity and/or phototoxicity reactions to medications” (priority 1994, dated 1997)
Structures can show the parent of a compound that is named as a salt.

How the values were obtained:
patients = experiment: Example 3: multicenter comparative safety and efficacy study, photosensitivity; assay type: in vivo, human; details: 400 mg x 7 days
Procedure: A double blind, randomized, parallel group, three-arm clinical study concerning the photosensitivity reactions caused by lomefloxacin HCl was the multicenter comparative safety and efficacy study which was conducted in Sweden. 400 mg of lomefloxacin HCl was given once a day (q.d.) for either three days or seven days. 703 patients were enrolled in this study, before newly-raised awareness of photosensitivity reactions associated with lomefloxacin HCl.
However, about one year into the study, on Feb. 2, 1989, a letter was sent out to each of the study investigators regarding the possible risks of lomefloxacin HCl photosensitivity reactions. This information was again communicated to the study investigators at an Investigator's Meeting which was held on Jun. 8, 1989. The above-describedwarnings to study investigators apparently may have not been shared with the patients taking part in the study because photosensitivity rates for this study were reported as for […] as 10% for lomefloxacin HCl 400 mg×7 days.

[1] = Pharmacokinetics of lomefloxacin in humans (general description); assay type: in vivo, human
[2] = in vivo
skin = details: humans and animals; cited from earlier work

With `CCn1cc(C(=O)O)c(=O)c2cc(F)c(N3CCNC(C)C3)c(F)c21` (racemic) [lomefloxacin HCl, monohydrochloride salt of (±)-1-ethyl-6,8-difluoro-1,4-dihydro-7-(3-methyl-1-piperazinyl)-4-oxo-3-quinolinecarboxylic acid] as the molecule, how does the photosensitivity rate (patients) read?
The photosensitivity rate was 10%.

And the “drug concentrations in many body tissues and fluids versus systemic circulation” value ([1]; 400 mg oral)?
Its value is “comparable to or higher than drug concentrations in systemic circulation”.

What about the absorption rate ([1]; healthy volunteers) of the same molecule?
Its absorption rate is “rapidly absorbed”.

What about the time to steady-state ([1]; healthy volunteers) of the same molecule?
Its time to steady-state is “by the end of the second day of dosing”.

What about the “number of metabolites identified” value ([1]; human urine) of the same molecule?
Its value is 5 metabolites.

And the dose excreted ([1]; human, feces, oral dose, read-out: unchanged drug recovered in the feces)?
The dose excreted was about 10%.

What about the Tmax ([1]; human, serum, healthy volunteers, after dosing, read-out: time to peak serum concentrations) of the same molecule?
The Tmax was 1 to 2 h.

And the metabolism ([1]; in vivo)?
Its metabolism is “minimally metabolized”.

What about the route of elimination ([1]; in vivo) of the same molecule?
The route of elimination was “primarily eliminated by renal excretion”.

What about the oral absorption ([1]; orally-administered) of the same molecule?
Its oral absorption is “one hundred”.

And the “time of peak plasma concentration following dosing” value [2]?
Its value is “approximately two”.

And the photoreactions of quinolones (skin)?
The photoreactions of quinolones was “dose-dependent, drug-induced, UVA required photosensitivity reaction”.
